Experimental findings from PubChem BioAssay AID1645848 are described below.

Converted amounts (≈) assume the structure as drawn.

The conditions of the series: buffer; pH 7.4; 6.0 h; 150.0 µM.
Regarding `COc1ccc(C(=O)Nc2nc(-c3ccccc3)cs2)c(NS(=O)(=O)c2ccc(C)cc2)c1`, the kinetic solubility was less than 1 µg/mL.

`CCN1CCN(C(=O)c2cc(-c3ccc(F)cc3)c3nncn3n2)CC1` displayed a solubility (kinetic) greater than 52 µg/mL. `CN1CCN(c2ccc(Nc3nc(-c4ccncc4)nc4ccccc34)cc2F)CC1` showed a kinetic solubility of 18.7 µg/mL (≈ 45.1 µM). Under `NC(=O)C1CCN(c2nc(-c3ccc(C(F)(F)F)cc3)cs2)CC1` stands 1.98 µg/mL (≈ 5.56 µM); under `Clc1ccccc1CSc1nc2ncc(Br)cc2[nH]1`, less than 1 µg/mL; under `COCCn1ccc2c(C3=CCOCC3)nc(-c3cccc(NC(C)=O)c3)cc21`, greater than 87 µg/mL.

`C#CCNC(=O)c1nc(-c2ccc([S+](C)(=O)[O-])cc2)c2cnccn12`: the kinetic solubility was less than 1 µg/mL.

`CCCNc1oc(-c2cccc3ccccc23)nc1C#N`: the kinetic solubility was less than 1 µg/mL. With `O=C(NCc1ccccc1)c1nc(S(=O)(=O)Cc2ccc(F)cc2)ncc1Cl`, the solubility (kinetic) is less than 1 µg/mL. Under `Cc1ccc(-c2cc(C(=O)Nc3ccc(-c4nn[nH]n4)cc3)c3ccccc3n2)cc1C` stands 7.58 µg/mL (≈ 18 µM). In turn, `NC(=O)C1CCN(c2nc(-c3cc4ccccc4o3)cs2)CC1` showed a kinetic solubility greater than 48 µg/mL. Under `CC(C)N(CCC(=O)c1ccc2ccccc2c1)Cc1ccccc1` stands 13.4 µg/mL (≈ 40.3 µM); under `COc1ccc(-c2nc3c(c(SCC(=O)Nc4ccc(C(=O)O)cc4)n2)Cc2ccccc2O3)cc1`, 1.45 µg/mL (≈ 2.9 µM).

In the case of `Cc1ccc(-c2csc(Nc3ccc(S(=O)(=O)Nc4nccs4)cc3)n2)cc1C`, the solubility (kinetic) is less than 1 µg/mL. On to `CCOC(=O)c1cc(-c2ccco2)nc2c1c(C)nn2CCC#N`, for which the kinetic solubility was determined as 9.9 µg/mL (≈ 30.5 µM). The figure for `O=C(Cn1ccn2nc3c(c2c1=O)CCCCC3)Nc1ccc2c(c1)OCO2` is less than 1 µg/mL. Under `CC(=O)c1c(C)[nH]c(C(=O)Nc2ccc(OCCCN(C)C)c(S(=O)(=O)Nc3ccc(Br)cc3)c2)c1C` stands 39 µg/mL (≈ 66 µM); under `COc1ccc(C(=O)N2CCCC(c3nn(-c4ccc(OC)cc4)c(=O)[nH]3)C2)cc1` (stereo unspecified), greater than 60 µg/mL. Molecule `Cc1cc(/C=C2/C(=O)Nc3ccccc32)cc(C)c1O` displayed a kinetic solubility of less than 1 µg/mL.

`CCCCOc1ccc(CNC(=O)c2cc3n(n2)CCCN(Cc2ccc(C)cc2)C3=O)cc1`: the solubility (kinetic) was less than 1 µg/mL. Under `COc1ccc(Cn2c(C(=O)O)c(CNCc3cccc(OC)c3)c3ccc(C)cc32)cc1` stands 6.85 µg/mL (≈ 15.4 µM). For the molecule `Cc1cccc2nc(-c3ccccn3)c(Nc3ccc(F)cc3)n12`, the kinetic solubility worked out at 34.2 µg/mL (≈ 107 µM). Under `COc1cnccc1-c1nc(Nc2ccc(F)c(F)c2)c2ccccc2n1` stands greater than 54 µg/mL; under `O=C1CCCC2=C1C1(CCCC1)N=C(Nc1nc3cc(Cl)ccc3o1)N2`, less than 1 µg/mL.

On to `OCCNc1ncnc2c1ncn2[C@@H]1O[C@@H](CO)[C@H](O)[C@@H]1O`, for which the kinetic solubility is greater than 46 µg/mL.

`CCOC(=O)c1ccc(N2C(=O)c3n[nH]c(-c4ccco4)c3C2c2ccc(C)cc2)cc1` (stereo unspecified) displayed a kinetic solubility of 1.45 µg/mL (≈ 3.38 µM). The figure for `COc1ccccc1Nc1ccnc(N2CCN(C(=O)c3ccc(C)cc3)CC2)n1` is 2.64 µg/mL (≈ 6.54 µM); for `CCOc1ccc(CCNC(=O)c2cc3ccccc3n2Cc2cccc(C)c2)cc1OCC` it is less than 1 µg/mL.

`COc1ccc(-n2nc(C3CCCN(C(=O)Nc4ccccc4)C3)[nH]c2=O)cc1` (stereo unspecified) registered a kinetic solubility of 34.9 µg/mL (≈ 88.8 µM). The molecule `Fc1ccc(Nc2nc(-c3ccnc(C(F)(F)F)c3)nc3ccccc23)cc1F` came in with a solubility (kinetic) of less than 1 µg/mL.

`Cc1cc(C)nc(NC(=S)N2CCN(c3cc(C(F)(F)F)nc4ccccc34)CC2)c1` registered a kinetic solubility of 19.7 µg/mL (≈ 44.3 µM). Consider `COc1ccc(C(=O)Nc2nc(-c3ccccc3)cs2)cc1NS(=O)(=O)c1ccc(C)cc1`, for which the solubility (kinetic) was less than 1 µg/mL. The figure for `Cc1cnc(-c2ccccc2OC(C)C)nc1NCc1ccc(-n2ccnn2)cc1` is 41.4 µg/mL (≈ 103 µM). As to `Cc1cc(Oc2ccc(N)cn2)ccc1Cl`, the solubility (kinetic) is greater than 35 µg/mL.

For `Fc1cccc(-c2ccc(Nc3nc(-c4ccncc4)nc4ccccc34)cc2F)c1`, the kinetic solubility is less than 1 µg/mL. In turn, `COc1cccc(CNC(=O)c2c(OC)cc(=O)n3c2CCN(C(=O)c2ccc(C)cc2C)CC3)c1` gave a kinetic solubility greater than 72 µg/mL. Under `COc1cc2ncnc(Nc3ccc(Oc4ccccc4)cc3)c2cc1OC` stands less than 1 µg/mL. Under `O=S(=O)(Nc1nccs1)c1ccc(NCc2cccc(Cl)c2O)cc1` stands 46.1 µg/mL (≈ 117 µM). In the case of `O=S(=O)(Nc1nccs1)c1ccc(Nc2nc(-c3ccc(F)cc3)cs2)cc1`, the solubility (kinetic) was determined as 2.36 µg/mL (≈ 5.46 µM). The figure for `Cn1nnnc1Sc1ncnc2scc(-c3ccccc3F)c12` is 1.2 µg/mL (≈ 3.48 µM). Molecule `O=c1c2ccccc2nc2n1CCC2` showed a solubility (kinetic) greater than 27 µg/mL.

For `Cc1c(CN(C)c2cc(C3CC(O)C3)nc(N)n2)[nH]c2ccccc12` (stereo unspecified), the solubility (kinetic) was greater than 50 µg/mL.

Turning to `CCC(CC)c1cc([C@H]2CN3CC[C@H]2C[C@@H]3CNC(C)=O)nc(-c2ccncc2)n1`, the solubility (kinetic) was greater than 60 µg/mL.

Take `CCOC(=O)C1CCN(C(=O)C2(NC(=O)Nc3ccccc3Cl)CCCC2)CC1`: the kinetic solubility is 41.8 µg/mL (≈ 99 µM).

As for `Oc1ccc(CNc2cccc(F)c2F)c2cccnc12`, the kinetic solubility is less than 1 µg/mL. Under `COC(=O)c1ccccc1NC(=O)c1ccccc1OC(F)F` stands less than 1 µg/mL. `COc1ccc(-c2ccc(Nc3nc(-c4ccncc4)nc4ccccc34)cc2F)cc1F` came in with a solubility (kinetic) of less than 1 µg/mL. Consider `COc1cccc(S(=O)(=O)Nc2cnccc2C(=O)Nc2nc(-c3ccccc3)cs2)c1`, for which the solubility (kinetic) stood at 53.9 µg/mL (≈ 116 µM). Under `COc1cccc(CNc2ccc(S(=O)(=O)Nc3nccs3)cc2)c1O` stands greater than 58 µg/mL; under `CCOC(=O)Nc1cc(-c2ccc(C)c(NS(C)(=O)=O)c2)nn2c(C)nnc12`, 33.6 µg/mL (≈ 83.2 µM). As for `Nc1ccccc1CNc1ccc(S(=O)(=O)Nc2nccs2)cc1`, the kinetic solubility was greater than 53 µg/mL. The figure for `CN1Cc2c(cc(N3CCOCC3)nc2-c2ccccc2OC(F)(F)F)C1=O` is 12.1 µg/mL (≈ 30.8 µM); for `O=C(NC[C@H]1Cn2c(-c3ccc(Cl)cc3)cnc2CO1)C1CCCC1` it is greater than 36 µg/mL. On to `CC[C@H]1/C=C\C=C/C[C@@H](C)[C@H](O)[C@@](C)(O)C(=O)[C@@H](C)[C@H](O)[C@@H](C)C(=O)[C@@H](C)[C@H](O)[C@@H](C)/C=C\C(=O)O[C@@H]2[C@H](C)[C@H](CC1)O[C@]1(CC[C@H](C)[C@H](C[C@@H](C)O)O1)[C@H]2C`, for which the kinetic solubility is less than 1 µg/mL.

Consider `CN(C)c1cc(-c2nc(Nc3ccc(F)c(F)c3)c3ccccc3n2)ccn1`, for which the solubility (kinetic) is less than 1 µg/mL. For the molecule `CN1C(=O)c2ccccc2[S@](=O)c2ccc(C(=O)NCc3cccnc3)cc21`, the kinetic solubility came out at 1.35 µg/mL (≈ 3.45 µM). `Cc1ccc(S(=O)(=O)Nc2ccccc2C(=O)Nc2ncc(-c3ccccc3)o2)cc1`: the solubility (kinetic) is less than 1 µg/mL.

With `O=C1Nc2ccccc2/C1=C/c1cc(Cl)c(O)c(Cl)c1`, the kinetic solubility is greater than 45 µg/mL.

In turn, `COc1ccc(-n2nc(C3CCCN(C(=O)Cc4ccc(F)cc4)C3)[nH]c2=O)cc1` (stereo unspecified) returned a solubility (kinetic) greater than 61 µg/mL. Consider `CCNC(=O)c1coc(COc2ccc3c(c2)C(c2ccc(F)cc2)N(C(=O)CC(C)C)CC3)n1` (stereo unspecified), for which the solubility (kinetic) was found to be 3.8 µg/mL (≈ 7.92 µM). Under `O=C(O)c1cnc(-c2ccc(F)cc2)nc1-c1ccncc1` stands greater than 29 µg/mL; under `CCCCn1cc2c(c1-c1ccc(Br)cc1)c(=O)n(C)c(=O)n2C`, less than 1 µg/mL.

`Cc1ccc(S(=O)(=O)Nc2ccccc2C(=O)Nc2ncc(-c3ccccc3)s2)cc1` came in with a solubility (kinetic) of less than 1 µg/mL. Under `COc1ccc(-n2nc(C3CCCN(C(=O)c4ccccc4)C3)[nH]c2=O)cc1` (stereo unspecified) stands greater than 56 µg/mL; under `CNC(=O)c1ccc(-c2cnc3cnc(C(=O)N(C)c4ccc(Cl)cc4)cn23)cc1`, greater than 62 µg/mL; under `CCOc1ccccc1N(CC(=O)N1CCOCC1)S(=O)(=O)c1ccc(SC)cc1`, greater than 67 µg/mL. The figure for `O=C(O)c1ccnc(-c2cc(C(=O)NCCc3ccccc3)ccn2)c1` is greater than 51 µg/mL; for `CCc1cccc(NC(=O)C(Cc2ccccc2)NS(=O)(=O)c2cccs2)c1` (stereo unspecified) it is less than 1 µg/mL.

`COc1ccc(C[C@@H]2C(=O)N[C@H](C)C(=O)N(C)[C@@H]3C(=O)N(C)[C@@H](Cc4ccc(O)c(c4)Oc4ccc(cc4)[C@H]3O)C(=O)N[C@@H](C)C(=O)N[C@H](C)C(=O)N2C)cc1`: the kinetic solubility was found to be 96.4 µg/mL (≈ 125 µM). The figure for `COc1ccc(C)cc1-n1nnnc1Sc1ncnc2scc(-c3ccc(Br)cc3)c12` is 2.38 µg/mL (≈ 4.65 µM); for `O=C(Nc1nc(-c2ccccc2)cs1)c1ccncc1NS(=O)(=O)c1ccc(F)cc1` it is 45.8 µg/mL (≈ 101 µM); for `O=S(=O)(Nc1nccs1)c1ccc(NCc2cccc(Br)c2O)cc1` it is 36.3 µg/mL (≈ 82.5 µM). Under `Cc1ccc(C(N)=O)cc1Nc1nccc(-c2cn(C(C)C)c3cnccc23)n1` stands 45.2 µg/mL (≈ 117 µM).

Molecule `Fc1cc(Nc2nc(-c3ccncc3)nc3ccccc23)ccc1-c1ccc(F)c(F)c1F` displayed a solubility (kinetic) of less than 1 µg/mL. As for `COc1ccc(CN2CCc3nc(N4CCN(c5ccc(F)cc5)CC4)ncc3C2)c(OC)c1OC`, the kinetic solubility is less than 1 µg/mL.

`Cc1nn2c(c1-c1ccccc1OCc1ccccc1)N(C(=O)Cc1ccc3c(c1)OCO3)CCC2`: the kinetic solubility was less than 1 µg/mL.

For the molecule `Cn1cnc(-c2nccc3c(=O)[nH]c(OCCCC(F)(F)F)nc23)c1`, the kinetic solubility was greater than 52 µg/mL. `CCN(CC)CCCNC(=O)c1oc2c(c1C)-c1nn(Cc3ccc(Cl)cc3)cc1CC2` registered a solubility (kinetic) greater than 67 µg/mL. Under `Cc1cc(C)nc(NC(=S)N2CCN(Cc3cccc(C(F)(F)F)c3)CC2)c1` stands 35.9 µg/mL (≈ 87.8 µM); under `COc1ccc(-n2c(C)cc(-c3nnc4n3CCCCC4)c2C)cc1`, 31.9 µg/mL (≈ 94.8 µM); under `CNC(=O)c1cc(Oc2ccc(NC(=O)Nc3ccc(Cl)c(C(F)(F)F)c3)c(F)c2)ccn1`, less than 1 µg/mL.

`COc1cccc(CNc2ccc(S(=O)(=O)Nc3ccc(C4CCNCC4)cc3)cc2)c1O` had a kinetic solubility of 58.4 µg/mL (≈ 125 µM).

In the case of `O=C(c1ccc2c(c1)ncn2-c1ccc(C(F)(F)F)cc1)N1CCCCC1`, the solubility (kinetic) was greater than 55 µg/mL.

The molecule `O=C(CCCN1CCC2(CC1)C(=O)N(Cc1cccc(F)c1)CN2c1ccccc1)c1ccc(F)cc1` returned a solubility (kinetic) of 4.23 µg/mL (≈ 8.41 µM). `Cc1cc(NS(=O)(=O)c2ccc(N(C)C(=O)Cc3ccc(Cl)c(Cl)c3)cc2)no1` displayed a solubility (kinetic) greater than 67 µg/mL. Under `Cc1noc(C)c1C(=O)N1CCC2(CC1)CCN(C(c1ccccc1)c1ccccc1)CC2` stands 22 µg/mL (≈ 49.5 µM).
